Assay results as given in US10561720B2, “Pharmaceutical compositions, comprising a combination of select carriers, vitamins, tannins and flavonoids as antigen-specific immuno-modulators” (EpitoGenesis, Inc., priority 2011, dated 2020).

Experiments:
Female BALB/c mice = assay: Example 5: IM vaccination with gp120 BaL in oleic acid formulations, serum gp120-specific IgG1 ELISA at 2WP2; format: in vivo; conditions: 40% oleic acid, compared to oleic acid plus EGCG, VA plus EGCG alone or no adjuvant, FIG. 11
Method: Groups of 4 female BALB/C mice were vaccinated intra-muscularly with various vaccine formulations containing 2.5 ug gp120 from the BaL Glade of HIV-1 twice at a 3 weeks interval. Serum gp120-specific IgG1 titers were measured by ELISA at 2 weeks post second vaccination (2WP2). The mice were vaccinated with combinations of retinyl palmitate (RP; 54 IU), epigallo catechin gallate (EGCG; 120 ug) in either 40% oleic acid, each alone or in various combinations.

mice = assay: serum TNFα and IL-6 at 6 hours following a single IM injection; format: in vivo; conditions: 6 hours after single IM vaccination; vs. NIDS or no adjuvant; FIG. 8
Method: To find further in vivo support of the above air pouch model results, in vivo production of early pro-inflammatory cytokines TNFα and IL-6 were determined in sera of mice at 6 hours following a single IM injection of NIDS vs. poly (I:C) vs. no adjuvant.

murine air pouch model = murine air pouch model of local cytotoxicity, multiplex Luminex of pouch fluid; format: in vivo, mice; conditions: compared to injection of NIDS, FIG. 7
Method: A local cytotoxicity test was performed by employing the murine air pouch model.

BALB/c mice = assay: cytokine responses in iliac lymph nodes after mucosal (IN/SL) and systemic (IM) vaccinations; format: in vivo; conditions: two mucosal (IN/SL) and one systemic (IM) boosting vaccinations vs. three IM vaccinations with Imject Alum; FIG. 4
[1] = air pouch supernatant 6 hours after injection

Compound	serum IgG1 antigen-specific responses (Female BALB/c mice)	serum IL-6 (mice)	serum TNFα (mice)	TNFα (murine air pouch model; air pouch supernatant 6 hours after injection of seven mouse vaccine dose equivalents)	G-CSF (murine air pouch model; [1])	IL-6 (murine air pouch model; [1])	IP-10 (murine air pouch model; [1])	KC (murine air pouch model; [1])	MCP-1 (murine air pouch model; [1])	MIP1-a (murine air pouch model; [1])	MIP-1b (murine air pouch model; [1])	MIP-2 (murine air pouch model; [1])	RANTES (murine air pouch model; [1])	local TH1 and TH2 cytokine responses in iliac lymph nodes (BALB/c mice)
CCCCCCCC/C=C\CCCCCCCC(=O)O [oleic acid]	enhanced	–	–	–	–	–	–	–	–	–	–	–	–	–
poly (I:C)	–	significantly enhanced	significantly enhanced	Significantly higher	Significantly higher	Significantly higher	Significantly higher	Significantly higher	Significantly higher	Significantly higher	Significantly higher	Significantly higher	Significantly higher	enhanced
